Results from US10647719B2, “Bicyclic compounds as dual ATX/CA inhibitors” (Hoffmann-La Roche Inc., priority 2015, dated 2020).
Read-outs that look alike come from different tables or passages of the source.

Key:
human ATX = human ATX (Homo sapiens (Human), UniProt Q13822); assay: Human ATX enzyme inhibition assay (fluorescence quenching, MR121 substrate); assay type: biochemical
Procedure: Human ATX Enzyme Inhibition Assay
ATX inhibition was measured by a fluorescence quenching assay using a specifically labeled substrate analogue (MR121 substrate). To obtain this MR121 substrate, BOC and TBS protected 6-amino-hexanoic acid (R)-3-({2-[3-(2-{2-[2-(2-amino-ethoxy)-ethoxy]-ethoxy}-ethoxy)-propionylamino]-ethoxy}-hydroxy-phosphoryloxy)-2-hydroxy-propyl ester (Ferguson et al., Org Lett 2006, 8 (10), 2023) was labeled with MR121 fluorophore (CAS 185308-24-1, 1-(3-carboxypropyl)-11-ethyl-1,2,3,4,8,9,10,11-octahydro-dipyrido[3,2-b:2′,3′-i]phenoxazin-13-ium) on the free amine of the ethanolamine side and then, after deprotection, subsequently with tryptophan on the side of the aminohexanoic acid.
(§1) Assay working solutions were made as follows:
Assay buffer (50 mM Tris-HCl, 140 mM NaCl, 5 mM KCl, 1 mM CaCl2, 1 mM MgCl2, 0.01% Triton-X-100, pH 8.0;
ATX solution: ATX (human His-tagged) stock solution (1.08 mg/mL in 20 mM bicine, pH 8.5, 0.15 M NaCl, 10% glycerol, 0.3% CHAPS, 0.02% NaN3), diluted to 1.4-2.5× final concentration in assay buffer;
MR121 substrate solution: MR121 substrate stock solution (800 μM MR121 substrate in DMSO), diluted to 2-5× final concentration in assay buffer.
Test compounds (10 mM stock in DMSO, 8 μL) were obtained in 384 well sample plates (Corning Costar #3655) and diluted with 8 μL DMSO. Row-wise serial dilutions were made by transferring 8 μL cpd solution to the next row up to row O. The compound and control solutions were mixed five times and 2 μL were transferred to 384 well assay plates (Corning Costar #3702). Then, 15 μL of 41.7 nM ATX solution was added (30 nM final concentration), mixed five times and then incubated for 15 minutes at 30° C. 10 μL of MR121 substrate solution was added (1 μM final concentration), mixed 30 times and then incubated for 15 minutes at 30° C.

[1] = target: Human carbonic anhydrase II (hCA-II) (Homo sapiens (Human), UniProt P00918); assay: Human carbonic anhydrase-II inhibition assay (absorbance, 4-nitrophenyl acetate substrate); assay type: biochemical
Procedure: Human Carbonic Anhydrase-II Inhibition Assay
Human carbonic anhydrase II (hCA-II) inhibition was measured by an absorbance method using 4-nitrophenyl acetate (4-NPA) as its substrate. 4-NPA can be catalyzed by active hCA II via a zinc-hydroxide mechanism. The nitrophenolate in the products can be ionized to generate a bright yellow anion with high absorbance at 348 to 400 nm, as reported in the literature (Armstrong et al., J. Biol. Chem. 1966, 241, 5137-5149). OD340 nm was chosen for detecting hCA II substrate conversion.
as §1
Assay buffer: 50 mM MOPS, 33 mM Na2SO4, 1 mM EDTA, 0.5 mg/ml BSA, pH 7.5;
Enzyme solution: hCA-II (human, full length) stock solution (1.0 mg/mL in 20 mM HEPES, 50 mM NaCl, pH 7.4), diluted to 2133× final concentration in assay buffer;
4-NPA substrate solution: 4-NPA substrate stock solution (250 mM in DMSO, stored at −20° C.), diluted to 50× final concentration in deionized water.
Test compounds (10 mM stock in DMSO, 100 μL) were obtained in […] sample plates (Corning Costar #3655) and diluted to 0.5 mM. Column-wise serial dilutions were made by transferring 20 μL compound solutions to the next column, from column 3 up to 22. After this, 1.2 μL were transferred to 384 well assay plates (Corning Costar #3701). Then 30 μL of 16 nM hCA II solution was added (8 nM final concentration), mixed five times. 30 μL of 4-NPA substrate solution was added (2.5 mM final concentration), mixed five times. Absorbance at 340 nm was then measured immediately as time zero. The assay plates were incubated at room temperature for 1 hour and then measured as time 1 hour (Perkin Elmer EnVision 2103; Filter: Photometric 340; Light intensity 60%; Number of flashes: 10). IC50 values and Ki values were calculated from these readouts.

[2] = human His-tagged ATX 30 nM, MR121 substrate 1 μM, 30° C., read-out: ATX IC50
[3] = hCA II 8 nM, 4-NPA 2.5 mM, absorbance 340 nm, room temperature 1 hour, read-out: CA-II IC50

Row | IC50 (human ATX) | IC50 [1] | IC50 (human ATX; [2]) | IC50 [1, 3] | SMILES
1 | 12 nM | 1 nM |  |  | CN1CCC(COc2cc(C(=O)N3CC4=C(C3)CN(C(=O)c3ccc(S(N)(=O)=O)c(F)c3F)C4)cc(C3CC3)n2)CC1 [Example 1.34, 4-[5-[2-cyclopropyl-6-[(1-methylpiperidin-4-yl)methoxy]pyridine-4-carbonyl]-1,3,4,6-tetrahydropyrrolo[3,4-c]pyrrole-2-carbonyl]-2,3-difluorobenzenesulfonamide]
2 | 1 nM | 24 nM |  |  | CC(C)(C)C(=O)Nc1cc(C#N)c(Cl)cc1COC(=O)N1CC2=C(C1)CN(C(=O)c1ccc(S(N)(=O)=O)cn1)C2 [Example 2.00, [5-Chloro-4-cyano-2-(2,2-dimethylpropanoylamino)phenyl]methyl 2-(5-sulfamoylpyridine-2-carbonyl)-1,3,4,6-tetrahydropyrrolo[3,4-c]pyrrole-5-carboxylate]
3 | 14 nM | 18 nM |  |  | NS(=O)(=O)c1ccc(C(=O)N2CCC3=C(CCN(C(=O)OCc4ccc(OC(F)(F)F)cc4)C3)C2)c(F)c1 [Example 2.01, [4-(trifluoromethoxy)phenyl]methyl 6-(2-fluoro-4-sulfamoylbenzoyl)-1,3,4,5,7,8-hexahydro-2,6-naphthyridine-2-carboxylate]
4 | 3 nM | 8 nM |  |  | NS(=O)(=O)c1ccc(C(=O)N2CC3=C(CN(C(=O)OCc4ccc(OC(F)(F)F)cc4)C3)C2)nc1 [Example 2.02, [4-(trifluoromethoxy)phenyl]methyl 2-(5-sulfamoylpyridine-2-carbonyl)-1,3,4,6-tetrahydropyrrolo[3,4-c]pyrrole-5-carboxylate]
5 | 2 nM | 6 nM |  |  | NS(=O)(=O)c1ccc(C(=O)N2CC3=C(CN(C(=O)OCc4ccc(OC(F)(F)F)cc4)C3)C2)c(F)c1 [Example 2.03, [4-(trifluoromethoxy)phenyl]methyl 2-(2-fluoro-4-sulfamoylbenzoyl)-1,3,4,6-tetrahydropyrrolo[3,4-c]pyrrole-5-carboxylate]
6 | 12 nM | 1.9 nM |  |  | Cc1nnn(Cc2cc(Cl)cnc2COC(=O)N2CC3=C(C2)CN(C(=O)c2ccc(S(N)(=O)=O)cc2F)C3)n1 [Example 2.04, [5-chloro-3-[(5-methyltetrazol-2-yl)methyl]pyridin-2-yl]methyl 2-(2-fluoro-4-sulfamoylbenzoyl)-1,3,4,6-tetrahydropyrrolo[3,4-c]pyrrole-5-carboxylate]
7 |  |  | 5 nM | 9 nM | NS(=O)(=O)c1ccc(C(=O)N2CC3=C(CN(C(=O)/C=C/c4ccc(OC(F)(F)F)cc4)C3)C2)c(F)c1 [Example 3.00, 3-Fluoro-4-[2-[(E)-3-[4-(trifluoromethoxy)phenyl]prop-2-enoyl]-1,3,4,6-tetrahydropyrrolo[3,4-c]pyrrole-5-carbonyl]benzenesulfonamide]
8 | 5 nM | 12 nM |  |  | NS(=O)(=O)c1ccc(C(=O)N2CC3=C(CN(C(=O)CCc4ccc(OC(F)(F)F)cc4)C3)C2)nc1 [Example 3.01, 6-[2-[3-[4-(trifluoromethoxy)phenyl]propanoyl]-1,3,4,6-tetrahydropyrrolo[3,4-c]pyrrole-5-carbonyl]pyridine-3-sulfonamide]
9 | 6 nM | 5 nM |  |  | NS(=O)(=O)c1ccc(C(=O)N2CC3=C(CN(C(=O)CCc4ccc(OC(F)(F)F)cc4)C3)C2)c(F)c1 [Example 3.02, 3-fluoro-4-[2-[3-[4-(trifluoromethoxy)phenyl]propanoyl]-1,3,4,6-tetrahydropyrrolo[3,4-c]pyrrole-5-carbonyl]benzenesulfonamide]
10 | 4 nM | 17 nM |  |  | NS(=O)(=O)c1ccc(C(=O)N2CC3=C(CN(C(=O)/C=C/c4ccc(OC(F)(F)F)cc4)C3)C2)nc1 [Example 3.03, 6-[2-[(E)-3-[4-(trifluoromethoxy)phenyl]prop-2-enoyl]-1,3,4,6-tetrahydropyrrolo[3,4-c]pyrrole-5-carbonyl]pyridine-3-sulfonamide]
11 | 7 nM | 17 nM |  |  | NS(=O)(=O)c1ccc(C(=O)N2CC3=C(CN(C(=O)COc4ccc(OC(F)(F)F)cc4)C3)C2)nc1 [Example 3.04, 6-[2-[2-[4-(trifluoromethoxy)phenoxy]acetyl]-1,3,4,6-tetrahydropyrrolo[3,4-c]pyrrole-5-carbonyl]pyridine-3-sulfonamide]
12 | 4 nM | 9 nM |  |  | NS(=O)(=O)c1ccc(C(=O)N2CC3=C(CN(C(=O)COc4ccc(OC(F)(F)F)cc4)C3)C2)c(F)c1 [Example 3.05, 3-fluoro-4-[2-[2-[4-(trifluoromethoxy)phenoxy]acetyl]-1,3,4,6-tetrahydropyrrolo[3,4-c]pyrrole-5-carbonyl]benzenesulfonamide]
13 | 2 nM | 16 nM |  |  | Cc1nnn(Cc2cc(C#N)ccc2CCC(=O)N2CC3=C(C2)CN(C(=O)c2ccc(S(N)(=O)=O)cc2F)C3)n1 [Example 3.06, 4-[2-[3-[4-cyano-2-[(5-methyltetrazol-2-yl)methyl]phenyl]propanoyl]-1,3,4,6-tetrahydropyrrolo[3,4-c]pyrrole-5-carbonyl]-3-fluorobenzenesulfonamide]
14 | 4 nM | 5 nM |  |  | Cc1nnn(Cc2cc(Cl)ccc2CCC(=O)N2CC3=C(C2)CN(C(=O)c2ccc(S(N)(=O)=O)cc2F)C3)n1 [Example 3.07, 4-[2-[3-[4-chloro-2-[(5-methyltetrazol-2-yl)methyl]phenyl]propanoyl]-1,3,4,6-tetrahydropyrrolo[3,4-c]pyrrole-5-carbonyl]-3-fluorobenzenesulfonamide]
15 | 1 nM | 6 nM |  |  | Cc1cnn(Cc2cc(C(F)(F)F)ccc2CCC(=O)N2CC3=C(C2)CN(C(=O)c2ccc(S(N)(=O)=O)cc2F)C3)n1 [Example 3.08, 3-fluoro-4-[2-[3-[2-[(4-methyltriazol-2-yl)methyl]-4-(trifluoromethyl)phenyl]propanoyl]-1,3,4,6-tetrahydropyrrolo[3,4-c]pyrrole-5-carbonyl]benzenesulfonamide]
16 | 1 nM | 11 nM |  |  | Cc1cn(Cc2cc(C(F)(F)F)ccc2CCC(=O)N2CC3=C(C2)CN(C(=O)c2ccc(S(N)(=O)=O)cc2F)C3)nn1 [Example 3.09, 3-fluoro-4-[2-[3-[2-[(4-methyltriazol-1-yl)methyl]-4-(trifluoromethyl)phenyl]propanoyl]-1,3,4,6-tetrahydropyrrolo[3,4-c]pyrrole-5-carbonyl]benzenesulfonamide]
17 | 2 nM | 5 nM |  |  | Cc1nnn(Cc2cc(C(F)(F)F)cnc2CCC(=O)N2CC3=C(C2)CN(C(=O)c2ccc(S(N)(=O)=O)cc2F)C3)n1 [Example 3.10, 3-fluoro-4-[2-[3-[3-[(5-methyltetrazol-2-yl)methyl]-5-(trifluoromethyl)pyridin-2-yl]propanoyl]-1,3,4,6-tetrahydropyrrolo[3,4-c]pyrrole-5-carbonyl]benzenesulfonamide]
18 |  |  | 10 nM | 3.8 nM | Cc1nnn(Cc2cc(C(F)(F)F)ccc2CCC(=O)N2CC3=C(C2)CN(C(=O)c2ncc(S(N)(=O)=O)cc2F)C3)n1 [Example 4.00, 5-fluoro-6-[2-[3-[2-[(5-methyltetrazol-2-yl)methyl]-4-(trifluoromethyl)phenyl]propanoyl]-1,3,4,6-tetrahydropyrrolo[3,4-c]pyrrole-5-carbonyl]pyridine-3-sulfonamide]
